# Laboratory results: ChEMBL document CHEMBL3046789, “Effect of s-metolachlor application timing on cabbage tolerance” (Crop Prot, 2007)
# Key:
# Assay type in all cases: organism-based
# [1] = test system: Brassica oleracea var. capitata; assay: Phyototoxicity against Brassica oleracea var. capitata (cabbage) assessed as crop injury at 800 g a.i./ha applied 1 to 2 days prior to transplantation followed by incorporation into soil measured on day 7 post-transplantation; settings: in vivo, other
# [2] = test system: Brassica oleracea var. capitata; assay: Phyototoxicity against Brassica oleracea var. capitata (cabbage) assessed as crop injury at 800 g a.i./ha applied 1 to 2 days after transplantation measured on day 7 post-transplantation; settings: in vivo, other
# [3] = test system: Brassica oleracea var. capitata; assay: Phytotoxicity against Brassica oleracea var. capitata (cabbage) assessed as cabbage head weight at 1600 g a.i/ha applied 1 to 2 days prior to transplantation followed by incorporation into soil (reference value: 2465 g); settings: in vivo, other
# [4] = test system: Brassica oleracea var. capitata; assay: Phyototoxicity against Brassica oleracea var. capitata (cabbage) assessed as crop injury at 1600 g a.i./ha applied 1 to 2 days prior to transplantation followed by incorporation into soil measured on day 14 post-transplantation; settings: in vivo, other
# [5] = test system: Brassica oleracea var. capitata; assay: Phytotoxicity against Brassica oleracea var. capitata (cabbage) assessed as yield at 1600 g a.i./ha applied 1 to 2 days after transplantation (reference value: 25.9 tons/ha); settings: in vivo, other
# [6] = test system: Brassica oleracea var. capitata; assay: Phytotoxicity against Brassica oleracea var. capitata (cabbage) assessed as yield at 1600 g a.i./ha applied 1 to 2 days prior to transplantation followed by incorporation into soil (reference value: 25.9 tons/ha); settings: in vivo, other
# [7] = test system: Brassica oleracea var. capitata; assay: Phyototoxicity against Brassica oleracea var. capitata (cabbage) assessed as crop injury at 1600 g a.i./ha applied 1 to 2 days prior to transplantation measured on day 28 post-transplantation; settings: in vivo, other
# [8] = test system: Brassica oleracea var. capitata; assay: Phytotoxicity against Brassica oleracea var. capitata (cabbage) assessed as cabbage head weight at 800 g a.i/ha applied 1 to 2 days prior to transplantation followed by incorporation into soil (reference value: 2465 g); settings: in vivo, other
# [9] = test system: Brassica oleracea var. capitata; assay: Phyototoxicity against Brassica oleracea var. capitata (cabbage) assessed as crop injury at 800 g a.i./ha applied 1 to 2 days after transplantation measured on day 28 post-transplantation; settings: in vivo, other
# [10] = test system: Brassica oleracea var. capitata; assay: Phytotoxicity against Brassica oleracea var. capitata (cabbage) assessed as yield at 800 g a.i./ha applied 1 to 2 days after transplantation (reference value: 25.9 tons/ha); settings: in vivo, other
# [11] = test system: Brassica oleracea var. capitata; assay: Phytotoxicity against Brassica oleracea var. capitata (cabbage) assessed as decrease in number of marketable cabbage heads at 800 to 2400 g i.a./ha applied 1 to 2 days prior to transplantation relative to control; settings: in vivo, other
# [12] = test system: Brassica oleracea var. capitata; assay: Phytotoxicity against Brassica oleracea var. capitata (cabbage) assessed as yield at 2400 g a.i./ha applied 1 to 2 days prior to transplantation (reference value: 25.9 tons/ha); settings: in vivo, other
# [13] = test system: Brassica oleracea var. capitata; assay: Phytotoxicity against Brassica oleracea var. capitata (cabbage) assessed as cabbage head weight at 1600 g a.i/ha applied 1 to 2 days after transplantation (reference value: 2465 g); settings: in vivo, other
# [14] = test system: Brassica oleracea var. capitata; assay: Phytotoxicity against Brassica oleracea var. capitata (cabbage) assessed as cabbage head weight at 800 g a.i/ha applied 1 to 2 days after transplantation (reference value: 2465 g); settings: in vivo, other
# [15] = test system: Brassica oleracea var. capitata; assay: Phyototoxicity against Brassica oleracea var. capitata (cabbage) assessed as crop injury at 1600 g a.i./ha applied 1 to 2 days after transplantation measured on day 7 post-transplantation; settings: in vivo, other
# [16] = test system: Brassica oleracea var. capitata; assay: Phyototoxicity against Brassica oleracea var. capitata (cabbage) assessed as crop injury at 800 g a.i./ha applied 1 to 2 days prior to transplantation measured on day 14 post-transplantation; settings: in vivo, other
# [17] = test system: Brassica oleracea var. capitata; assay: Phyototoxicity against Brassica oleracea var. capitata (cabbage) assessed as crop injury at 2400 g a.i./ha applied 1 to 2 days after transplantation measured on day 28 post-transplantation; settings: in vivo, other
# [18] = test system: Brassica oleracea var. capitata; assay: Phytotoxicity against Brassica oleracea var. capitata (cabbage) assessed as cabbage head weight at 2400 g a.i/ha applied 1 to 2 days after transplantation (reference value: 2465 g); settings: in vivo, other
# [19] = test system: Brassica oleracea var. capitata; assay: Phytotoxicity against Brassica oleracea var. capitata (cabbage) assessed as yield at 2400 g a.i./ha applied 1 to 2 days after transplantation (reference value: 25.9 tons/ha); settings: in vivo, other
# [20] = test system: Brassica oleracea var. capitata; assay: Phyototoxicity against Brassica oleracea var. capitata (cabbage) assessed as crop injury at 2400 g a.i./ha applied 1 to 2 days prior to transplantation followed by incorporation into soil measured on day 28 post-transplantation; settings: in vivo, other
# [21] = test system: Brassica oleracea var. capitata; assay: Phytotoxicity against Brassica oleracea var. capitata (cabbage) assessed as cabbage head weight at 800 g a.i/ha applied 1 to 2 days prior to transplantation (reference value: 2465 g); settings: in vivo
# [22] = test system: Brassica oleracea var. capitata; assay: Phyototoxicity against Brassica oleracea var. capitata (cabbage) assessed as crop injury at 1600 g a.i./ha applied 1 to 2 days after transplantation measured on day 28 post-transplantation; settings: in vivo, other
# [23] = test system: Brassica oleracea var. capitata; assay: Phyototoxicity against Brassica oleracea var. capitata (cabbage) assessed as crop injury at 2400 g a.i./ha applied 1 to 2 days prior to transplantation measured on day 28 post-transplantation; settings: in vivo, other
# [24] = test system: Brassica oleracea var. capitata; assay: Phytotoxicity against Brassica oleracea var. capitata (cabbage) assessed as cabbage head weight at 2400 g a.i/ha applied 1 to 2 days prior to transplantation followed by incorporation into soil (reference value: 2465 g); settings: in vivo, other
# [25] = test system: Brassica oleracea var. capitata; assay: Phyototoxicity against Brassica oleracea var. capitata (cabbage) assessed as crop injury at 2400 g a.i./ha applied 1 to 2 days prior to transplantation measured on day 7 post-transplantation; settings: in vivo, other
# [26] = test system: Brassica oleracea var. capitata; assay: Phyototoxicity against Brassica oleracea var. capitata (cabbage) assessed as crop injury at 800 g a.i./ha applied 1 to 2 days prior to transplantation followed by incorporation into soil measured on day 14 post-transplantation; settings: in vivo, other
# [27] = test system: Brassica oleracea var. capitata; assay: Phytotoxicity against Brassica oleracea var. capitata (cabbage) assessed as decrease in number of marketable cabbage heads at 800 to 2400 g i.a./ha applied 1 to 2 days after transplantation relative to control; settings: in vivo
# [28] = test system: Brassica oleracea var. capitata; assay: Phyototoxicity against Brassica oleracea var. capitata (cabbage) assessed as crop injury at 2400 g a.i./ha applied 1 to 2 days after transplantation measured on day 7 post-transplantation; settings: in vivo, other
# [29] = test system: Brassica oleracea var. capitata; assay: Phyototoxicity against Brassica oleracea var. capitata (cabbage) assessed as crop injury at 2400 g a.i./ha applied 1 to 2 days after transplantation measured on day 14 post-transplantation; settings: in vivo
# [30] = test system: Brassica oleracea var. capitata; assay: Phyototoxicity against Brassica oleracea var. capitata (cabbage) assessed as crop injury at 1600 g a.i./ha applied 1 to 2 days after transplantation measured on day 14 post-transplantation; settings: in vivo
# [31] = test system: Brassica oleracea var. capitata; assay: Phytotoxicity against Brassica oleracea var. capitata (cabbage) assessed as cabbage head weight at 1600 g a.i/ha applied 1 to 2 days prior to transplantation (reference value: 2465 g); settings: in vivo, other
# [32] = test system: Brassica oleracea var. capitata; assay: Phyototoxicity against Brassica oleracea var. capitata (cabbage) assessed as crop injury at 1600 g a.i./ha applied 1 to 2 days prior to transplantation followed by incorporation into soil measured on day 28 post-transplantation; settings: in vivo, other
# [33] = test system: Brassica oleracea var. capitata; assay: Phytotoxicity against Brassica oleracea var. capitata (cabbage) assessed as yield at 2400 g a.i./ha applied 1 to 2 days prior to transplantation followed by incorporation into soil (reference value: 25.9 tons/ha); settings: in vivo, other
# [34] = test system: Brassica oleracea var. capitata; assay: Phytotoxicity against Brassica oleracea var. capitata (cabbage) assessed as yield at 800 g a.i./ha applied 1 to 2 days prior to transplantation followed by incorporation into soil (reference value: 25.9 tons/ha); settings: in vivo, other
# [35] = test system: Brassica oleracea var. capitata; assay: Phyototoxicity against Brassica oleracea var. capitata (cabbage) assessed as crop injury at 800 g a.i./ha applied 1 to 2 days prior to transplantation followed by incorporation into soil measured on day 28 post-transplantation; settings: in vivo, other
# [36] = test system: Brassica oleracea var. capitata; assay: Phyototoxicity against Brassica oleracea var. capitata (cabbage) assessed as crop injury at 1600 g a.i./ha applied 1 to 2 days prior to transplantation measured on day 7 post-transplantation; settings: in vivo, other
# [37] = test system: Brassica oleracea var. capitata; assay: Phyototoxicity against Brassica oleracea var. capitata (cabbage) assessed as crop injury at 2400 g a.i./ha applied 1 to 2 days prior to transplantation followed by incorporation into soil measured on day 7 post-transplantation; settings: in vivo, other
# [38] = test system: Brassica oleracea var. capitata; assay: Phyototoxicity against Brassica oleracea var. capitata (cabbage) assessed as crop injury at 800 g a.i./ha applied 1 to 2 days prior to transplantation measured on day 28 post-transplantation; settings: in vivo, other
# [39] = test system: Brassica oleracea var. capitata; assay: Phytotoxicity against Brassica oleracea var. capitata (cabbage) assessed as yield at 800 g a.i./ha applied 1 to 2 days prior to transplantation (reference value: 25.9 tons/ha); settings: in vivo, other
# [40] = test system: Brassica oleracea var. capitata; assay: Phyototoxicity against Brassica oleracea var. capitata (cabbage) assessed as crop injury at 1600 g a.i./ha applied 1 to 2 days prior to transplantation measured on day 14 post-transplantation; settings: in vivo, other
# [41] = test system: Brassica oleracea var. capitata; assay: Phyototoxicity against Brassica oleracea var. capitata (cabbage) assessed as crop injury at 2400 g a.i./ha applied 1 to 2 days prior to transplantation followed by incorporation into soil measured on day 14 post-transplantation; settings: in vivo, other
# [42] = test system: Brassica oleracea var. capitata; assay: Phyototoxicity against Brassica oleracea var. capitata (cabbage) assessed as crop injury at 2400 g a.i./ha applied 1 to 2 days prior to transplantation measured on day 14 post-transplantation; settings: in vivo, other
# [43] = test system: Brassica oleracea var. capitata; assay: Phyototoxicity against Brassica oleracea var. capitata (cabbage) assessed as crop injury at 800 g a.i./ha applied 1 to 2 days after transplantation measured on day 14 post-transplantation; settings: in vivo
# [44] = test system: Brassica oleracea var. capitata; assay: Phytotoxicity against Brassica oleracea var. capitata (cabbage) assessed as decrease in number of marketable cabbage heads at 800 to 2400 g i.a./ha applied 1 to 2 days prior to transplantation followed by incorporation into soil relative to control; settings: in vivo, other
# [45] = test system: Brassica oleracea var. capitata; assay: Phyototoxicity against Brassica oleracea var. capitata (cabbage) assessed as crop injury at 800 g a.i./ha applied 1 to 2 days prior to transplantation measured on day 7 post-transplantation; settings: in vivo, other
# [46] = test system: Brassica oleracea var. capitata; assay: Phytotoxicity against Brassica oleracea var. capitata (cabbage) assessed as cabbage head weight at 2400 g a.i/ha applied 1 to 2 days prior to transplantation (reference value: 2465 g); settings: in vivo, other
# [47] = test system: Brassica oleracea var. capitata; assay: Phyototoxicity against Brassica oleracea var. capitata (cabbage) assessed as crop injury at 1600 g a.i./ha applied 1 to 2 days prior to transplantation followed by incorporation into soil measured on day 7 post-transplantation; settings: in vivo, other
# [48] = test system: Brassica oleracea var. capitata; assay: Phytotoxicity against Brassica oleracea var. capitata (cabbage) assessed as yield at 1600 g a.i./ha applied 1 to 2 days prior to transplantation (reference value: 25.9 tons/ha); settings: in vivo, other
compound,measurement,setting,value
CCc1cccc(C)c1N(C(=O)CCl)[C@@H](C)COC [S-METOLACHLOR],Activity,[1],2%
same,Activity,[2],3%
same,Activity,[3],2255 g
same,Activity,[4],0%
same,Crop_yield,[5],26.4 tons/ha
same,Crop_yield,[6],23.4 tons/ha
same,Activity,[7],0%
same,Activity,[8],2413 g
same,Activity,[9],0%
same,Crop_yield,[10],24.5 tons/ha
same,Activity,[11],Non-toxic
same,Crop_yield,[12],25.4 tons/ha
same,Activity,[13],2556 g
same,Activity,[14],2310 g
same,Activity,[15],2%
same,Activity,[16],0%
same,Activity,[17],0%
same,Activity,[18],2676 g
same,Crop_yield,[19],27.7 tons/ha
same,Activity,[20],0%
same,Activity,[21],2386 g
same,Activity,[22],0%
same,Activity,[23],0%
same,Activity,[24],2421 g
same,Activity,[25],3%
same,Activity,[26],0%
same,Activity,[27],Non-toxic
same,Activity,[28],0%
same,Activity,[29],0%
same,Activity,[30],0%
same,Activity,[31],2540 g
same,Activity,[32],0%
same,Crop_yield,[33],25.7 tons/ha
same,Crop_yield,[34],26.4 tons/ha
same,Activity,[35],0%
same,Activity,[36],2%
same,Activity,[37],1%
same,Activity,[38],0%
same,Crop_yield,[39],26.7 tons/ha
same,Activity,[40],1%
same,Activity,[41],0%
same,Activity,[42],0%
same,Activity,[43],1%
same,Activity,[44],Non-toxic
same,Activity,[45],2%
same,Activity,[46],2460 g
same,Activity,[47],3%
same,Crop_yield,[48],27.1 tons/ha
